The values below come from US9446047B2, “Substituted 2,3-dihydro-1H-inden-1-one retinoic acid-related orphan nuclear receptor antagonists for treating multiple sclerosis” (Arrien Pharmaceuticals LLC, priority 2013, dated 2016).

Like-named read-outs stand apart in the source and are kept apart here. Some results are limits rather than exact numbers.

For one data set, the target named is T1, RORγt (Homo sapiens, UniProt P51449).
T1 construct: host or cells: IL-17A Prom/LUCPorter HEK 293 cell line (IMGENEX, IML-301)
T1 sequence (P51449 1-497 isoform P51449-2): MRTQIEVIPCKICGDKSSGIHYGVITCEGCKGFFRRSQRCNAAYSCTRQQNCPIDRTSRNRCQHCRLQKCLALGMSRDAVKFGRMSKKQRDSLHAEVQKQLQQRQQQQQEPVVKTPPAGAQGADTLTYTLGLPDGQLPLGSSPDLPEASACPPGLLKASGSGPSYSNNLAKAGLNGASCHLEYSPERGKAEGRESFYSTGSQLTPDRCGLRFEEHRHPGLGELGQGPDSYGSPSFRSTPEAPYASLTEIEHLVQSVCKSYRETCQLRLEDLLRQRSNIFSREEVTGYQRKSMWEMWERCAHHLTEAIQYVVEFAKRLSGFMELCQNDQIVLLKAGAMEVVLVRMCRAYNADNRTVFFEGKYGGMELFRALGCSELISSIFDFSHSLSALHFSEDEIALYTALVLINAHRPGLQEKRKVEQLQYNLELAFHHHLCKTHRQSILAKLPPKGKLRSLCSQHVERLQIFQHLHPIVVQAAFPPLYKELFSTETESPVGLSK
In words: RORγt-activated IL-17A Prom/LUCPorter HEK 293 cells luciferase reporter assay. In kind it is cell-based. The settings on record: IL-17A Prom/LUCPorter HEK 293 cells transfected with RORγt, 16 h.

Data set [1] in a line: Rat pharmacokinetics, intravenous bolus and oral gavage. In kind it is in vivo, male Sprague Dawley rats. The settings on record: plasma. The protocol:
The bio-availability and pharmacokinetics of some compounds of the present invention were examined in male Sprague Dawley rats. A total of 6 male rats were used in the study. The study was performed using parallel design (n=3) with serial sampling.
Dose formulations were prepared on the day of doing. Blood samples were collected at 0.083 (only IV), 0.25, 0.5, 1, 2, 4, 8 and 24 h post-dose. At each time point, approximately 0.2 mL of blood was withdrawn from each cannulated rat through jugular vein and transferred to a pre-labeled microfuge tube containing 20 μL of […] K2EDTA per mL of blood. Following collection of blood sample, equal volume of heparinized saline was flushed into jugular vein of rat. The blood samples were centrifuged at 5000 g for 5 min at 4±2° C. The plasma was separated within 30 min of scheduled time and stored below −60° C. until bio-analysis. The plasma samples were analyzed for selected test EXAMPLES using a fixed-for purpose liquid chromatographic tandem mass spectrometric detection (LC-MS/MS) method with a lower limit of quantification of 2.21 ng/mL. The pharmacokinetic parameters for select EXAMPLES were calculated using the non-compartmental analysis tool of validated WinNonlin® software (Version 5.2).
Pharmacokinetic parameters (mean±SD; n=3) of 7 following intravenous bolus and oral gavage administration of 7 solution in male Sprague Dawley rats are shown in TABLE 4 below: […]

For a further data set, the target named is T2, RORγ-LBD (RORγt) (Homo sapiens, UniProt P51449).
T2 construct: the 6-His-(GST) RORγ-LBD was used which expressed and purified from baculovirus infected Sf-21 insect cells; made in house; host or cells: baculovirus-infected Sf-21 insect cells
T2 sequence (P51449 269-508 limits assumed): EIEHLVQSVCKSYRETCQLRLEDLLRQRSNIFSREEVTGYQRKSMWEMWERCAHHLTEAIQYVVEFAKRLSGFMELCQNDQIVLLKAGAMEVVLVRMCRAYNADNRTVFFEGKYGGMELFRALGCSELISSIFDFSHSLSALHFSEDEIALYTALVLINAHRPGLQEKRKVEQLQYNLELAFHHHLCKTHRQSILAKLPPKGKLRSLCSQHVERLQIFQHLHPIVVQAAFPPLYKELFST
In words: TR-FRET RORγt Binding Assay. The settings on record: 6-His(GST)RORγ-LBD, SRC1_2 peptide.

Data set [2] relates to IL-17 release from CD4+ T cells. Kind of data set: Cytokine IL-17 estimation by HTRF, IL-17 release from CD4+ T cells. In kind it is cell-based. The settings on record: Homo sapiens, HTRF.
A further data set has as its system IL-17 production. In words: Anti-CD3e antibody induced CD4+ T cell cytokine IL-17 production in male BALB/c mice (serum ELISA). In kind it is in vivo, mouse. The settings on record: Dexamethasone treatment; serum at 1.5 h after anti-CD3e antibody. How it is done: Efficacy of substituted 2, 3-dihydro-1H-inden-1-one containing selected compounds on Inhibition of Anti-CD3e Antibody induced CD4^+ T cell Cytokine-IL-17 Production in Male BALB/c Mice
A quantitative analysis of mouse IL-17 sandwich ELISA was conducted from the collected serum samples (Mouse IL-17 ELISA Ready-DuoSet ELISA kit, from R&D Systems, USA). The serum samples tested were collected from mice after 1.5 h of anti-CD3e antibody challenge, before antibody challenge, the mice were treated with different doses of test compounds or Dexamethasone as mentioned above in experimental design. The capture antibody was diluted in coating buffer (1×PBS) and transferred into each well. The plate was sealed and incubated overnight at RT. The following day the wells of the plate were aspirated and washed (3 times), allowing a one minute soak time in each step. The plate was blocked using 1% BSA in PBS, sealed, and incubated in ambient conditions for not less than one hour. After the incubation period, the plate was washed as described above, and the standards and serum samples were added to the appropriate wells and incubated for two hours at RT. […] The plate was read at 450/570 nm using the Microplate Absorbance Reader (SpectraMax; M3). […] Percent inhibition of cytokine production was calculated for all groups compared to positive control.

Setting [3] is: IV 2 mg/kg, solution, male Sprague Dawley rats, mean±SD n=3.
[4] abbreviates: PO 10 mg/kg, solution, male Sprague Dawley rats, mean±SD n=3.
Where [5] appears, read: IL-17 release from CD4+ T cells, read-out: IL-17 Inhibition.

In the case of `COc1cc2c(cc1N1CCOCC1)CC(Cc1cccc(OC(F)(F)F)c1)C2=O` (stereo not drawn) [compound 31, 6-methoxy-5-morpholino-2-(3-(trifluoromethoxy)benzyl)-2,3-dihydro-1H-inden-1-one], the IC50 on RORγt (read-out: RORγt Cell Specific) was greater than 10000 nM. In data set [1] (male, Sprague Dawley, PO 10 mg/kg vs IV 2 mg/kg, AUCinf and nominal doses used, read-out: F (bioavailability)), the bioavailability was found to be 19%. Also, in data set [1] (setting [3]), the AUC(0-inf) turned out to be 589 ± 63.9 ng·h/mL, the AUC(0-t) is 572 ± 57.4 ng·h/mL, the clearance was found to be 57 ± 5.85 mL/min/kg and the half-life is 6.63 ± 4.92 h. Moreover, the Cmax in data set [1] (IV 2 mg/kg, solution, male Sprague Dawley rats, mean±SD n=3, footnote b: back extrapolated concentration at time zero) is 1940 ± 482 ng/mL. In data set [1] (setting [4]), this compound displayed an AUC(0-inf) of 558 ± 125 ng·h/mL, an AUC(0-t) of 553 ± 124 ng·h/mL and a Cmax of 176 ± 22.7 ng/mL. Moreover, the Tmax in data set [1] (PO 10 mg/kg, solution, male Sprague Dawley rats, median (min-max)) was 2 h. Besides, on RORγ-LBD (RORγt) (read-out: RORγt Binding), the IC50 is greater than 1000 nM. Moreover, in data set [2] (setting [5]), the IC50 was greater than 1000 nM.
Regarding `COc1cc2c(cc1N1CCOCC1)CC(CC1CCN(Cc3ccccc3)CC1)C2=O` (stereo not drawn) [compound 23, 2-((1-benzylpiperidin-4-yl)methyl)-6-methoxy-5-morpholino-2,3-dihydro-1H-inden-1-one], the IC50 is greater than 1000 nM on RORγt (read-out: RORγt Cell Specific), less than 500 nM on RORγ-LBD (RORγt) (read-out: RORγt Binding) and less than 500 nM in data set [2] (setting [5]).
Regarding `CCS(=O)(=O)Oc1cc2c(cc1OC)CC(Cc1ncccc1C(F)(F)F)C2=O` (stereo not drawn) [compound 191], the IC50 (on RORγt (read-out: RORγt Cell Specific); at RORγ-LBD (RORγt) (read-out: RORγt Binding); in data set [2] (setting [5])) was less than 500 nM each time.
In the case of `COc1cc2c(cc1N1CCOCC1)CC(Cc1ccc(C(F)(F)F)cc1)C2=O` (stereo not drawn) [compound 86], the IC50 (at RORγt (read-out: RORγt Cell Specific); at RORγ-LBD (RORγt) (read-out: RORγt Binding); in data set [2] (setting [5])) was greater than 1000 nM each time.
With `COc1ccc2c(c1OC)CC(Cc1ccc(SC(F)(F)F)cc1)C2=O` (stereo not drawn) [compound 167], the IC50 at RORγt (read-out: RORγt Cell Specific) was greater than 1000 nM; on RORγ-LBD (RORγt) (read-out: RORγt Binding) it was greater than 1000 nM; in data set [2] (setting [5]) it was less than 500 nM.
For `CCS(=O)(=O)Oc1ccc2c(c1)CC(Cc1ccc(SC(F)(F)F)cc1)C2=O` (stereo not drawn) [compound 194], the IC50 (at RORγt (read-out: RORγt Cell Specific); at RORγ-LBD (RORγt) (read-out: RORγt Binding); in data set [2] (setting [5])) was less than 500 nM each time.
For `COc1cc2c(cc1N1CCOCC1)CC(Cc1ccc(Cl)c(C(F)(F)F)c1)C2=O` (stereo not drawn) [compound 89], the results for the IC50 (on RORγt (read-out: RORγt Cell Specific); at RORγ-LBD (RORγt) (read-out: RORγt Binding); in data set [2] (setting [5])) were greater than 1000 nM, greater than 1000 nM and less than 500 nM, respectively.
Consider `COc1cc2c(cc1N1CCOCC1)CC(Cc1cccc(C(O)(C(F)(F)F)C(F)(F)F)n1)C2=O` (stereo not drawn) [compound 266], for which the IC50 (on RORγt (read-out: RORγt Cell Specific); at RORγ-LBD (RORγt) (read-out: RORγt Binding); in data set [2] (setting [5])) was less than 500 nM throughout.
As for `COc1cc2c(cc1N1CCN(CCO)CC1)CC(Cc1ncccc1C(F)(F)F)C2=O` (stereo not drawn) [compound 251], the IC50 (at RORγt (read-out: RORγt Cell Specific); on RORγ-LBD (RORγt) (read-out: RORγt Binding); in data set [2] (setting [5])) was less than 500 nM in each case.
In the case of `COc1cc2c(cc1NC1CCN(C)CC1)CC(Cc1ncccc1C(F)(F)F)C2=O` (stereo not drawn) [compound 146], the IC50 on RORγt (read-out: RORγt Cell Specific) is greater than 1000 nM; at RORγ-LBD (RORγt) (read-out: RORγt Binding), greater than 1000 nM; in data set [2] (setting [5]) it was less than 500 nM.
For the compound `COc1cc2c(cc1N1CCOCC1)CC(Cc1ccc(SC(F)(F)F)cc1)C2=O` (stereo not drawn) [compound 74, 6-methoxy-5-morpholino-2-(4-((trifluoromethyl)thio)benzyl)-2,3-dihydro-1H-inden-1-one], the IC50 at RORγt (read-out: RORγt Cell Specific) was greater than 10000 nM; at RORγ-LBD (RORγt) (read-out: RORγt Binding) it was greater than 10000 nM; in data set [2] (setting [5]), greater than 1000 nM.
As for `COc1cc2c(cc1N1CCN(C)CC1)CC(Cc1cccc(C(F)(F)F)c1Cl)C2=O` (stereo not drawn) [compound 110, 2-(2-chloro-3-(trifluoromethyl)benzyl)-6-methoxy-5-(4-methylpiperazin-1-yl)-2,3-dihydro-1H-inden-1-one], the IC50 was less than 500 nM on RORγt (read-out: RORγt Cell Specific), less than 500 nM at RORγ-LBD (RORγt) (read-out: RORγt Binding) and greater than 1000 nM in data set [2] (setting [5]).
As for `COc1cc2c(cc1N1CCC(C)CC1)CC(Cc1ncccc1C(F)(F)F)C2=O` (stereo not drawn) [compound 142], the IC50 is greater than 1000 nM at RORγt (read-out: RORγt Cell Specific), greater than 1000 nM on RORγ-LBD (RORγt) (read-out: RORγt Binding) and less than 500 nM in data set [2] (setting [5]).
Regarding `COc1cc2c(cc1NC1CCN(C)CC1)CC(Cc1ccc(SC(F)(F)F)cc1)C2=O` (stereo not drawn) [compound 144], the IC50 (at RORγt (read-out: RORγt Cell Specific); on RORγ-LBD (RORγt) (read-out: RORγt Binding); in data set [2] (setting [5])) was greater than 1000 nM throughout.
Take `COc1cc2c(cc1N1CCN(C)CC1)CC(Cc1ncccc1C(F)(F)F)C2=O` (stereo not drawn) [compound 113]: the IC50 is less than 500 nM at RORγt (read-out: RORγt Cell Specific), less than 500 nM at RORγ-LBD (RORγt) (read-out: RORγt Binding) and greater than 1000 nM in data set [2] (setting [5]).
With `COc1cc2c(cc1N1CCOCC1)CC(Cc1cccc(C(F)(F)F)c1F)C2=O` (stereo not drawn) [compound 80], the IC50 (at RORγt (read-out: RORγt Cell Specific); on RORγ-LBD (RORγt) (read-out: RORγt Binding); in data set [2] (setting [5])) was greater than 1000 nM each time.
As for `C[C@@H]1C[C@H]2[C@@H]3CCC4=CC(=O)C=C[C@]4(C)[C@@]3(F)[C@@H](O)C[C@]2(C)[C@@]1(O)C(=O)CO` [Dexamethasone, reference compound], the IC50 in data set [2] (CD4+ T lymphocytes, standards, read-out: IC50 of IL-17 inhibition (assay standards)) is 14 nM. Besides, in the data set on IL-17 production, the “reduction in IL-17 production compared to positive control group” value worked out at 94%.
Consider `COc1cc2c(cc1N1CCOCC1)CC(Cc1cccc(C(F)(F)F)c1)C2=O` (stereo not drawn) [compound 37, 6-methoxy-5-morpholino-2-(3-(trifluoromethyl)benzyl)-2,3-dihydro-1H-inden-1-one], for which the IC50 (on RORγt (RORγt Cell Specific); at RORγ-LBD (RORγt) (RORγt Binding); in data set [2] (setting [5])) was less than 500 nM each time.
